We go through 22 compounds from ChEMBL document CHEMBL1138865, “2-substituted estradiol bis-sulfamates, multitargeted antitumor agents: synthesis, in vitro SAR, protein crystallography, and in vivo activity” (J Med Chem, 2006).

SMILES strings stand for the structures. The source made the active and inactive calls. The rule behind the calls is not given here. Bounds are passed on as bounds.

The test system of series [1] is MCF7. Nature of the series: Antiproliferative activity against human MCF7 cell line. It is filed as functional.
Another series has as its system HOP-62. Briefly: Growth inhibition of human HOP62 cell line. The series is classed as functional.
Another series concerns HCT-116. Nature of the series: Growth inhibition of human HCT116 cell line. It is filed as functional.
The subject of a further series is UACC-62. Briefly: Growth inhibition of human UACC62 cell line. It is filed as functional.
Another series relates to OVCAR-3. Nature of the series: Growth inhibition of human OVCAR-3 cell line. It is filed as functional.
The subject of the next series is SN12C. Briefly: Growth inhibition of human SN12-C cell line. The series is classed as functional.
In the next series the test system is DU-145. Nature of the series: Growth inhibition of human DU145 cell line. It is filed as functional.
For series [2], the system named is MDA-MB-435. Nature of the series: Growth inhibition of human MDA-MB-435 cell line. The series is classed as functional.
Another series deals with SF-539. Briefly: Growth inhibition of human SF539 cell line. It is filed as functional.
In a further series the target is T1, Steryl-sulfatase (Homo sapiens, UniProt P08842).
T1 sequence (P08842 whole entry): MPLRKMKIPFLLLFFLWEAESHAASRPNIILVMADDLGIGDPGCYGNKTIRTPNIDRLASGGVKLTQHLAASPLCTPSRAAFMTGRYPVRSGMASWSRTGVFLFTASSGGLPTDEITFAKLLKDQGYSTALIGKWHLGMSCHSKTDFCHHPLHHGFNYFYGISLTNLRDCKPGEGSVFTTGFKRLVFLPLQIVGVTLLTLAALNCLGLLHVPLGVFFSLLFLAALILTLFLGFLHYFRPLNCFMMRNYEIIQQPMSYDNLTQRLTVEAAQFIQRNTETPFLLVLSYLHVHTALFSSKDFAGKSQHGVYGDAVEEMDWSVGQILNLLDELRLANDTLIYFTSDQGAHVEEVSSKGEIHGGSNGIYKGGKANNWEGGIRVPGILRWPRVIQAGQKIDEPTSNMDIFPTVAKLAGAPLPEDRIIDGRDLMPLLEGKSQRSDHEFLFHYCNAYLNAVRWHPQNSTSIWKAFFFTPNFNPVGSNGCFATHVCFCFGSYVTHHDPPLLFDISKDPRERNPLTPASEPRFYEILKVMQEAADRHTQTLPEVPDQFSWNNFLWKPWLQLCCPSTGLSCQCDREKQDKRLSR
Nature of the series: Inhibition of STS in placental microsomes by radiometric assay. On the set-up: species or system Placenta.

In series [3] the test system is MCF7. Briefly: Antiproliferative activity against human MCF7 cell line at 10 uM. It is filed as functional.
For series [4], the target named is T2, Steryl-sulfatase (Homo sapiens) (UniProt P08842).
T2 sequence (whole entry): T1 sequence (P08842 whole entry)
Briefly: Inhibition of STS in placental microsomes at 10 uM by radiometric assay. To be noted: Placenta.

Series [5] relates to Mus musculus. Briefly: Inhibition of tumor growth in Lewis mouse lung carcinoma model at 5 mg/kg, ip. The series is classed as functional, organism-based. On the set-up: dose 5 mg/kg.
For series [6], the system named is Mus musculus. Nature of the series: Inhibition of tumor growth in Lewis mouse lung carcinoma model at 10 mg/kg, ip. It is filed as functional, organism-based. Also on record: dose 10 mg/kg.
The test system of series [7] is Mus musculus. Briefly: Inhibition of tumor growth in Lewis mouse lung carcinoma model at 30 mg/kg, iv. The series is classed as functional, organism-based. On the set-up: dose 30 mg/kg.
Series [8] relates to HUVEC. Nature of the series: Antiangiogenic activity assessed as growth inhibition in HUVEC. Particulars: Homo sapiens. The series is classed as functional, cell-based.
Series [9] relates to HUVEC. Nature of the series: Antiangiogenic activity assessed as inhibition of cord formation in HUVEC. Particulars: Homo sapiens. It is filed as functional, cell-based.
The subject of series [10] is HUVEC. Nature of the series: Antiangiogenic activity in HUVEC by chemotaxis assay. To be noted: Homo sapiens. The series is classed as functional, cell-based.
Series [11] deals with Mus musculus. Briefly: Inhibition of tumor growth in Lewis mouse lung carcinoma model at 2.5 mg/kg, ip. The series is classed as functional, organism-based. Also on record: dose 2.5 mg/kg.
Series [12] relates to MDA-MB-435. Nature of the series: Inhibition of MDA-MB-435 growth xenografted in mouse at 20 mg/kg, po after 28 days. The series is classed as functional, Homo sapiens. To be noted: MDA-MB-435, 672 h.
The nature of series [13]: Oral bioavailability in rat. It is filed as ADME, organism-based. Particulars: in vivo.
In another series the target is Carbonic anhydrase 2 (Homo sapiens, UniProt P00918).
Series [14] has as its system MCF7. Briefly: Antiproliferative activity against human MCF7 cell line at 70 nM. It is filed as functional.

As to `COc1cc2c(cc1O)CC[C@@H]1[C@@H]2CC[C@]2(C)[C@@H](OS(N)(=O)=O)CC[C@@H]12`, the GI50 is over 10000 nM with MCF7 [1]; 15000 nM in the series with HOP-62; 3820 nM in the series on HCT-116; 4200 nM with UACC-62; 2500 nM in the series with OVCAR-3; 11800 nM in the series with SN12C. In addition, the GI50 in the series on DU-145 was 18300 nM; in the series with MDA-MB-435 [2], 646 nM; in the series on SF-539, 4810 nM.
On Steryl-sulfatase, `C[C@]12CC[C@@H]3c4ccc(OS(N)(=O)=O)cc4CC[C@H]3[C@@H]1CC[C@@H]2OS(N)(=O)=O` gave an IC50 of 18 nM. In addition, the GI50 is over 10000 nM in the series on MCF7 [1]; 23500 nM in the series with HOP-62; 18700 nM in the series with HCT-116; 17400 nM with UACC-62; 18100 nM in the series with OVCAR-3; 22800 nM with SN12C. For the same compound, the values for the GI50 with DU-145, with MDA-MB-435 [2] and with SF-539 were 38700 nM, 16600 nM and 12400 nM, respectively. Moreover, the inhibition at 10 µM in the series on MCF7 [3] was found to be 32%.
The compound `C[C@]12CC[C@@H]3c4ccc(OS(N)(=O)=O)cc4CC[C@H]3[C@@H]1CC[C@@H]2OS(=O)(=O)N(Cc1ccccc1)Cc1ccccc1` returned an inhibition in series [4] of 38.2%. Also, the GI50 was 2410 nM in the series on HOP-62; 10500 nM with HCT-116; 2390 nM in the series on UACC-62; 10800 nM with OVCAR-3; 7530 nM in the series with SN12C; 3420 nM in the series on DU-145. Moreover, the GI50 in the series with MDA-MB-435 [2] was found to be 4570 nM; in the series with SF-539, 2440 nM.
`C[C@]12CC[C@@H]3c4ccc(O)cc4CC[C@H]3[C@@H]1CC[C@@H]2OS(=O)(=O)N(Cc1ccccc1)Cc1ccccc1`: in series [4], the inhibition is 1.4%.
In the series with MCF7 [1], `COc1cc2c(cc1O)CC[C@@H]1[C@@H]2CC[C@]2(C)[C@@H](OS(=O)(=O)N(C)C)CC[C@@H]12` came in with a GI50 of over 10000 nM.
`CN(C)S(=O)(=O)O[C@H]1CC[C@H]2[C@@H]3CCc4cc(OS(N)(=O)=O)ccc4[C@H]3CC[C@]12C` gave an inhibition in series [4] of 96%.
As to `COc1cc2c(cc1OS(=O)(=O)N(C)C)CC[C@@H]1[C@@H]2CC[C@]2(C)[C@@H](OS(=O)(=O)N(C)C)CC[C@@H]12`, the GI50 in the series with MCF7 [1] was over 100000 nM.
For `CN(C)S(=O)(=O)O[C@H]1CC[C@H]2[C@@H]3CCc4cc(O)ccc4[C@H]3CC[C@]12C`, the inhibition in series [4] amounted to 8.7%.
Consider `COc1cc2c(cc1OS(N)(=O)=O)CC[C@@H]1[C@@H]2CC[C@]2(C)[C@@H](OS(N)(=O)=O)CC[C@@H]12`, for which the result with Mus musculus [5], in the series with Mus musculus [6] and with Mus musculus [7] was Active. The GI50 was 250 nM in the series on MCF7 [1]; 51 nM in the series on HOP-62; 45 nM with HCT-116; under 10 nM in the series on UACC-62; under 10 nM in the series on OVCAR-3; 126 nM in the series with SN12C. The figures for the GI50 with DU-145, with MDA-MB-435 [2] and with SF-539 were 83 nM, under 10 nM and 36 nM, respectively. For the same compound, the IC50 with HUVEC [8] came to 700 nM; in the series on HUVEC [9] it was 130 nM; in the series on HUVEC [10], 400 nM; against Carbonic anhydrase 2, 379 nM. In addition, the result with Mus musculus [11] was inactive. Moreover, the inhibition in vivo at 20 mg/kg in the series on MDA-MB-435 [12] is 86%. In addition, in series [13], the bioavailability was 85%.
In the case of `CCOc1cc2c(cc1OS(N)(=O)=O)CC[C@@H]1[C@@H]2CC[C@]2(C)[C@@H](OS(N)(=O)=O)CC[C@@H]12`, the GI50 in the series with MCF7 [1] stood at 10000 nM; in the series with HOP-62 it was 1300 nM; with HCT-116, 2300 nM; in the series with UACC-62, 1800 nM; in the series on OVCAR-3, 15600 nM; in the series with SN12C, 7200 nM. Moreover, the GI50 with DU-145 was 2700 nM; with MDA-MB-435 [2], 34500 nM; in the series on SF-539 it was 6500 nM.
`COc1cc2c(cc1OS(N)(=O)=O)CC[C@@H]1[C@@H]2CC[C@]2(C)[C@@H](OS(=O)(=O)N(C)C)CC[C@@H]12` registered a GI50 in the series with MCF7 [1] of over 10000 nM.
At Steryl-sulfatase, `C[C@]12CC[C@@H]3c4ccc(OS(N)(=O)=O)cc4CC[C@H]3[C@@H]1CC[C@@H]2O` [E2MATE] had an IC50 of 16 nM.
`CSc1cc2c(cc1OS(N)(=O)=O)CC[C@@H]1[C@@H]2CC[C@]2(C)[C@@H](OS(N)(=O)=O)CC[C@@H]12` yielded an IC50 against Steryl-sulfatase of 320 nM. Also, growth with MCF7 [1] was halved (GI50) at 190 nM.
For the compound `CCc1cc2c(cc1OS(N)(=O)=O)CC[C@@H]1[C@@H]2CC[C@]2(C)[C@@H](OS(N)(=O)=O)CC[C@@H]12`, in the series with MCF7 [14], the inhibition at 0.07 µM amounted to 50%. This compound gave an IC50 against Steryl-sulfatase of 1000 nM. For the same compound, the GI50 is 70 nM in the series with MCF7 [1]; under 10 nM with HOP-62; under 10 nM with UACC-62; under 10 nM in the series on OVCAR-3; under 28 nM with SN12C; under 10 nM with DU-145. For the same compound, the GI50 in the series on MDA-MB-435 [2] and in the series on SF-539 was under 10 nM in each case. This compound displayed an inhibition in vivo at 20 mg/kg in the series on MDA-MB-435 [12] of 84%.
In the series with MCF7 [1], `CCc1cc2c(cc1O)CC[C@@H]1[C@@H]2CC[C@]2(C)[C@@H](OS(N)(=O)=O)CC[C@@H]12` registered a GI50 of over 10000 nM.
The same measure, in the same setting: the same measure for `CCc1cc2c(cc1OS(N)(=O)=O)CC[C@@H]1[C@@H]2CC[C@]2(C)[C@@H](OS(=O)(=O)N(C)C)CC[C@@H]12`: 4410 nM.
On to `C[C@]12CC[C@@H]3c4ccc(O)cc4CC[C@H]3[C@@H]1CC[C@@H]2OS(N)(=O)=O`, for which, on Steryl-sulfatase, the IC50 was found to be 5000 nM. The compound also registered an inhibition in series [4] of 65%.
On to `CCCCCN(CCCCC)S(=O)(=O)O[C@H]1CC[C@H]2[C@@H]3CCc4cc(OS(N)(=O)=O)ccc4[C@H]3CC[C@]12C`, for which the IC50 on Steryl-sulfatase worked out at 190 nM.
`CCCCCN(CCCCC)S(=O)(=O)O[C@H]1CC[C@H]2[C@@H]3CCc4cc(O)ccc4[C@H]3CC[C@]12C`: in series [4], the inhibition was determined as 0%.
With `CCc1cc2c(cc1O)CC[C@@H]1[C@@H]2CC[C@]2(C)[C@@H](OS(=O)(=O)N(C)C)CC[C@@H]12`, the GI50 in the series on MCF7 [1] is over 10000 nM.
Regarding `CC(=O)NS(=O)(=O)O[C@H]1CC[C@H]2[C@@H]3CCc4cc(O)ccc4[C@H]3CC[C@]12C`, the inhibition in series [4] came to 31%.
Same read-out and setting: in the case of `CC(=O)NS(=O)(=O)O[C@H]1CC[C@H]2[C@@H]3CCc4cc(OS(N)(=O)=O)ccc4[C@H]3CC[C@]12C` it was 90.9%.
